According to US20250041317A1, “NEUROACTIVE STEROID FOR THE TREATMENT OF HUNTINGTON'S DISEASE” (SAGE THERAPEUTICS, INC., priority 2021, published 2025):

Columns and labels:
[1] = test system: subjects with early manifest Huntington's disease; experiment: Cogstate Two Back Test (TWOB), working memory; type: in vivo, human; settings: HD Subjects (Part B), 1 mg
Text: (§1) Sentinel dosing of subjects was employed for Cohort 3.
(§2) Cogstate Battery was used to assess cognitive functioning, such as attention, working memory, information processing speed, executive function, and motor skills, and consists of the Stop Signal Reaction Test (STOP), Detection Task (DET), Identification Task (IDN), One Back Learning Task (ONB), Two Back Learning Task (TWOB), and Groton Maze Learning Test (GML).
(§3) The endpoints for each Cogstate Battery tests are change from baseline scores at each post-baseline assessment.
(§4) Mean change from baseline scores at all post-baseline assessments were analyzed using mixed-effect repeated measure model (MMRM); with dose, visit, interaction between dose and visit as fixed effects, baseline as a covariate and subject as random effect. Unstructured covariance structure was used to model the variance-covariance matrix of the repeated measurements. If estimation issues arose during construction of covariance structure, compound symmetry was used in place of unstructured. The least square (LS) means differences between dose groups and placebo at each post baseline timepoint were estimated along with 95% confidence intervals.

[2] = test system: subjects with early manifest Huntington's disease; experiment: Cogstate Groton Maze Learning Test (GML), executive function; type: in vivo, human; settings: HD Subjects (Part B), 1 mg, all timepoints except for day 4
Text: as §1, §2, §3, §4

[3] = test system: Patients with Huntington's Disease; experiment: Assessment of psychomotor speed (Psychomotor Vigilance Task Test, FIG. 5); type: in vivo, human; settings: patients with HD, 1 mg
Text: FIG. 5 depicts performance measured using the Psychomotor Vigilance Task Test in Patients with Huntington's Disease and Healthy Participants. Z-Transformed Change from Baseline to Day 14 (Mean±SE) is depicted.
(§5) Additional objectives included an assessment of changes in subject performance on cognitive tasks.

Patients with HD = experiment: Tests of executive functioning (Cogstate Battery); type: in vivo, human; settings: 1 mg, FIGS. 1-4
Text: as §5, §2, §3

[4] = Phase 1 MAD study: safety and tolerability of Compound 1 Oral Solution
Text: Subjects were assigned sequentially to one of 3 cohorts. […] Cohorts 1 and 2 were divided into 4 sub-groups of 3 subjects. Each sub-group in Part A started dosing on Day 1 over the course of 4 consecutive days, with the remaining dosing days overlapping in a staggered fashion. A maximum of 3 Part A subjects per calendar day per site will begin treatment at Day 1.
The Screening Period began with the signing of the informed consent form (ICF) at the Screening Visit. An optional genetic sample was collected during screening. On Day −2 (Part A) or Day −1 (Part B), qualified subjects were admitted to the unit. Subjects were discharged from the unit on Day 17 after completion of all assessments, provided that the Investigator was satisfied that it is safe for the subject to be discharged. In total, the inpatient stay for Part A subjects was approximately 19 days, and approximately 18 days for Part B subjects. Subjects returned for a Follow-up Visit on Day 21 (±2 days), approximately one week after the end of treatment.

[5] = healthy adults (0.5 mg or 1.0 mg) and subjects with early manifest HD, multiple oral doses

C[C@H](CC[C@](C)(O)C(F)(F)F)[C@H]1CC[C@H]2[C@@H]3CC=C4C[C@@](C)(O)CC[C@]4(C)[C@H]3CC[C@]12C [Compound 1]
Performance on the two-back test vs baseline, statistical significance ([1]; Days 8-14, threshold p<0.05): significant improvement compared to baseline
Performance on the two-back test vs baseline ([1]; all timepoints after baseline): improvement in performance
Performance in the GML test vs baseline [2]: improvement
Change from baseline on assessment of psychomotor speed [3]: No changes from baseline were observed
Change from baseline on tests of executive functioning (Patients with HD): improvements from baseline
TEAEs in Part B ([4]; Part B, subjects with HD): No TEAEs were reported
Deaths [4, 5]: No deaths were reported
Serious AEs [4, 5]: No serious AEs were reported
TEAEs leading to study withdrawal or treatment discontinuation [4, 5]: No TEAEs leading to study withdrawal or treatment discontinuation were reported
Suicidal ideation or suicidal behavior compared to baseline, C-SSRS ([4]; measured by C-SSRS): no signals for increased suicidal ideation or suicidal behavior
